Test results from US20230046416A1 (Soteria Biotherapeutics, Inc., priority 2019, published 2023).

Tested on: AZ21
Experiment: Biolayer interferometry, Ab59 binding to immobilized AZ21
Method: Binding kinetics between BCl-2 fusion protein Ab59 and AZ-21 was assayed by biolayer interferometry. […] Curves represent measured data points on an Octet RED384.

AZ21, sequence (P10415 1-207 C158A limits assumed): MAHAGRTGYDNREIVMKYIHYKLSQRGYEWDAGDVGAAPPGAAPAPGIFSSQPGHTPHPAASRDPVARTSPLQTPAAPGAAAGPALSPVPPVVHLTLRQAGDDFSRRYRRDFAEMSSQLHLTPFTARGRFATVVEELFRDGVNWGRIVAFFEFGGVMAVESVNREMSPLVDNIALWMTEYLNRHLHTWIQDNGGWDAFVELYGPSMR

binding to AZ21 in the presence of ABT-199 (with ABT-199, FIG. 25B): potent and reversible binding
binding to AZ21 in the absence of ABT-199 (without ABT-199, FIG. 25B): no significant binding
Substance: Ab59: heterodimeric Fc fusion protein: BCl-2 C158A linked to a human IgG1 Fc, plus a second human IgG1 Fc domain
